Results published in patent US5830885A, “Antiproliferative vitamin D3 hybrids” (The Johns Hopkins University, priority 1996, dated 1998).
Entries after “also recorded” stand apart in the source; their conditions may differ.

Experiments:
calf thymus VDR = target: T1, calf thymus VDR (Bos taurus, UniProt Q28037); assay: VDR binding assay, displacement of [^3 H]-1,25(OH)2 D3 from VDR; conditions: for Amount Bound (amount that results in 50% displacement of [^3 H]-1,25(OH)2 D3 from VDR): Table 3, calf thymus VDR
T1 construct: from the calf thymus VDR; from tissue; host or cells: calf thymus
T1 sequence (Q28037 1-426): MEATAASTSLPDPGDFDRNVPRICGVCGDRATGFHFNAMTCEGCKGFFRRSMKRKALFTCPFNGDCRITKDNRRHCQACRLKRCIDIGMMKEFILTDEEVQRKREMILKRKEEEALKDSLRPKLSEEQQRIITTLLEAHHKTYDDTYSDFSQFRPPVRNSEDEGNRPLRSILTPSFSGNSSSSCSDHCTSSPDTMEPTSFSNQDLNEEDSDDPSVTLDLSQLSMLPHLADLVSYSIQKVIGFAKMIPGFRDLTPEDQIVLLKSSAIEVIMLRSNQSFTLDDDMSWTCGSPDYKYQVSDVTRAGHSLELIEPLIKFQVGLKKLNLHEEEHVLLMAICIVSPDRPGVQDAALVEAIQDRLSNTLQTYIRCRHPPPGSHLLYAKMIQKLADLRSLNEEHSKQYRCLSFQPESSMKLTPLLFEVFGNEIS
Experimental: The VDR binding assay was performed according to the procedure of Reinhardt, T. A., Horst, R. L., Orf, J. W., Hollis, B. W., J. Clin. Endocrin. Metab., 58: 91-98 (1984), the entire contents of which are hereby incorporated herein by reference.

keratinocyte = assay: Dose-response effects on keratinocyte proliferation (FIGS. 3, 4, 9, 10); type: cell-based; conditions: cell numbers at 0 and 96 hours
Experimental: N0 represents the number of cells at zero hours and N1 represents the number of cells at 96 hours.

[1] = system: RWLeu-4 human CML cell line; assay: Proliferation of RWLeu-4 human chronic myelogenous leukemic cells; type: cell-based; conditions: even at 50 nM; FIG. 5
Text: MCW-II5-y-A is compound YA and MCW-II5-y-B is compound YB.

[2] = system: human breast cancer cell lines MDA 468 and SKBr 3; assay: Thymidine incorporation by human breast cancer cell lines; type: cell-based; conditions: human breast cancer cells; FIGS. 6A and 6B
Text: (§1) FIGS. 6A and 6B show a comparison of the effects of 1,25(OH)2 D3 (filled squares), YA (filled circles) and YB (filled triangles) on thymidine incorporation by human breast cancer cell lines MDA 468 and SKBr 3.

calcium channels = assay: Calcium channel opening assay; type: cell-based
U 937 cancer cells [3] = assay: Inhibition of cell proliferation in U 937 cancer cells (Table 5); type: cell-based, human; conditions: for IC50: Homo sapiens, U 937 cells; for inhibiting cell proliferation (in words): U 937, YB vs 1,25(OH)2 D3, YA up to 10^-7 M
U 937 cancer cells [4] = assay: Induction of cell differentiation in U 937 cancer cells (Table 5); type: cell-based, human
U 937 cancer cells [5] = assay: Viability of U 937 cancer cells (Table 5); type: cell-based; conditions: Homo sapiens, at 10^-7 M, read-out: Viability
[6] = Solubility in organic solvents; type: physicochemical; conditions: methylene chloride, chloroform, methanol; for YA/YB also EtOAc, acetone
cell proliferation [7] = assay: Inhibition of proliferation (ratings of Table 2); type: cell-based; conditions: Table 2 rating
cell differentiation = assay: Induction of differentiation (ratings of Table 2); type: cell-based; conditions: for differentiation inducing activity: compared with calcitriol
MDA 468 cells = assay: Thymidine incorporation by MDA 468 human breast cancer cells; type: cell-based; conditions: FIGS. 6A and 6B
Text: as §1

cell proliferation [8] = assay: Anti-proliferative activity (summary statements); type: cell-based; conditions: compared with calcitriol or in general words
HL-60 cells = conditions: relative to 1,25D3; cited from earlier work
[9] = system: Human lymphoma cells U 937; conditions: relative to calcitriol = 1; cited from earlier work
[10] = system: Human lymphoma cells U 937; conditions: relative to calcitriol = 1; cited from earlier work; remark: listed apart in the source
Lewis rats = conditions: relative to calcitriol = 1; cited from earlier work

With `C=C1/C(=C\C=C2/CCC[C@]3(C)[C@@H]([C@@H](C)OCCCC(O)(CC)CC)CC[C@@H]23)C[C@H](O)C[C@H]1CO` [YB, 22-oxa-1-(hydroxymethyl)-26-(hydroxydiethyl) vitamin D3] the “Amount Bound (amount that results in 50% displacement of [^3 H]-1,25(OH)2 D3 from VDR)” value (calf thymus VDR) was 29.5 ng, the “times less strongly bound to VDR than 1,25(OH)2 D3” value (calf thymus VDR; relative to 1,25(OH)2 D3) was “about 1300 times” and the “effect on keratinocyte proliferation” value (keratinocyte) was “comparable to that of calcitriol”. The “anti-proliferative effect on RWLeu-4 cells” value [1] was “comparable to or slightly greater than that of calcitriol”, the “inhibition of growth (suppression of thymidine incorporation)” value [2] was “very comparable to calcitriol” and the “Average peak shift compared to control” value (calcium channels; 0.05 nM) was 3.6 ± 2.2 mV. For the same molecule, the “Average peak shift compared to control” value (calcium channels; 0.5 nM) was 13.2 ± 2.8 mV, the “Average peak shift compared to control” value (calcium channels; 5 nM) was 16.6 ± 2.8 mV and the “Average peak shift compared to control” value (calcium channels; 50 nM) was 18.4 ± 2.1 mV. For the same molecule, the IC50 (U 937 cancer cells [3]) was 60 nM, the “inhibiting cell proliferation (in words)” value (U 937 cancer cells [3]) was “about one third as active” and the “inducing cell differentiation (in words)” value (U 937 cancer cells [4]; at a concentration of 10^-8 M) was “effective in inducing cell differentiation”. For the same molecule, the viability at 0.1 µM (U 937 cancer cells [5]) was 99%, the “solubility in organic solvents” value [6] was “sparingly soluble” and the “Inhibition of Proliferation (rating)” value (cell proliferation [7]) was 1. The “Induction of Differentiation (rating)” value (cell differentiation; Table 2 rating) was 1 and the differentiation inducing activity (cell differentiation) was “comparable to that of calcitriol”.

For `C=C1/C(=C\C=C2/CCC[C@]3(C)[C@@H]([C@@H](C)OCCCC(O)(CC)CC)CC[C@@H]23)C[C@@H](O)C[C@@H]1CO` [YA, 22-oxa-1-(hydroxymethyl)-26-(hydroxydiethyl) vitamin D3], the “VDR binding (in words)” value (calf thymus VDR) was “even weaker binding for VDR than YB; also recorded: low VDR binding”, the “Amount Bound (amount that results in 50% displacement of [^3 H]-1,25(OH)2 D3 from VDR)” value (calf thymus VDR) was 2200 ng and the “effect on keratinocyte proliferation” value (keratinocyte) was “not effective for inhibition of proliferation”. The “inhibition of growth (suppression of thymidine incorporation)” value (MDA 468 cells) was “appears to have no effect”, the “Average peak shift compared to control” value (calcium channels; 0.05 nM) was 1.0 ± 0.1 mV and the “Average peak shift compared to control” value (calcium channels; 0.5 nM) was 10.8 ± 1.5 mV. For the same molecule, the “Average peak shift compared to control” value (calcium channels; 5 nM) was 16.1 ± 4.1 mV, the “Average peak shift compared to control” value (calcium channels; 50 nM) was 18.6 ± 3.3 mV and the IC50 (U 937 cancer cells [3]) was > 100 nM. For the same molecule, the “inhibiting cell proliferation (in words)” value (U 937 cancer cells [3]) was “ineffective”, the “inducing cell differentiation (in words)” value (U 937 cancer cells [4]; at 10^-7 M) was “inactive” and the viability at 0.1 µM (U 937 cancer cells [5]) was 99%. The “solubility in organic solvents” value [6] was “sparingly soluble”, the differentiation inducing activity (cell differentiation) was “relatively ineffective in inducing differentiation” and the anti-proliferative activity (cell proliferation [8]) was “relatively ineffective in inducing differentiation or inhibiting proliferation”.

For `C=C1/C(=C\C=C2/CCC[C@]3(C)[C@@H]([C@@H](C)OCCCC(O)(CC)CC)CC[C@@H]23)C[C@@H](O)C[C@@H]1O` [KH-1060], the “times as effective as 1,25D3 in the induction of leukemic cell (HL-60) differentiation” value (HL-60 cells) is given as 133 times, the “Relative Potency, Inhibition of Proliferation” value [9] is given as 31,000 and the “Relative Potency, Induction of Differentiation” value [10] is given as 100,000. For the same molecule, the “Relative Potency, Calcemic Effects” value (Lewis rats) was 1.3.
